Key:
[1] = test system: MDBK(Madin-Darby Bovine Kidney Epithelial Cells); experiment: Cytotoxicity, MTS analysis, MDBK; conditions: 3.1~500 ppm/well, 14 hours + 2 hours MTS, vs 5% DMSO treatment group
Description: (§1) In the present example, using MTS analysis method (3-(4,5-[…])-5-(3-carboxymethoxyphenyl)-2-(4-sulfophenyl)-2H-tetrazolium, promega, USA), an effect on survival of cells of the mangosteen extract was investigated.
(§2) The cell lines utilized in cytotoxicity evaluation were (1) MDBK(Madin-Darby Bovine Kidney Epithelial Cells) and (2) RAW264.7(Mouse macrophage cell), and all of them were purchased from ATCC and used.
(§3) Each cell was aliquoted at a concentration of 1×10^5 cell/well in a 96-well cell culture plate, and cultured at 37° C. for 24 hours, and then each material (mangosteen extract, xanthone, alpha-mangostin and epicatechin) was treated by concentration (3.1˜500 ppm/well) and cultured at a temperature of 37° C.

Eimeria tenella [2] = experiment: Protozoan (sporozoite) direct killing ability, Eimeria tenella; format: cell-based; conditions: for Eimeria tenella protozoal death rate (%): compared to PBS-treated negative control group
Experimental: (§4) In the present example, protozoan (sporozoite) direct killing ability evaluation was conducted against 3 representative Eimeria kinds known to be infected in most farms (E. tenella, E. acervulina, E. maxima).
(§5) A certain amount of oocysts of each protozoan was put in a tube containing glass beads and pulverized, and then to remove the crushed oocyst cell wall and other debris, internal sporocysts were purified using the percoll density gradient, and washed with PBS solution. A reagent comprising sodium taurocholic acid (Sigma aldrich, USA) and trypsin (Gibco, USA), respectively, was treated to sporocysts of Eimeria tenella, Eimeria acervulina and Eimeria maxima for excystation and they were incubated, and then they were washed with PBS solution once and protozoa were obtained.
(§6) After reacting the mangosteen pericarp extract, epicatechin, alpha-mangostin, xanthone and anticoccidial agents, salinomycin and diclazuril (hereinafter, material) with 3 kinds of Eimeria protozoa at various concentrations of 1 to 500 ppm, respectively, only alive protozoa (sporozoites) were counted through microscopic observation. Then, the death rate (%) of the protozoa when each material was treated compared to the PBS-treated negative control group was calculated and shown in Table 8 to Table 10 and Table 12, respectively, and the minimum concentration which directly killed the protozoa by 100% was shown in Table 11 below.

[3] = test system: RAW264.7(Mouse macrophage cell); experiment: Cytotoxicity, MTS analysis, RAW264.7; conditions: 3.1~500 ppm/well, 14 hours + 2 hours MTS, vs 5% DMSO treatment group
Description: as §1, §2, §3

Eimeria tenella [4] = experiment: In vivo anticoccidial efficacy evaluation in broilers challenge-inoculated with Eimeria tenella; parameters: species or system Ross broilers
Experimental: An in vivo anticoccidial efficacy evaluation test was performed in an animal experiment facility in Gyeongsangnam-do, South Korea. One-day-old female Ross broilers were individually weighed and randomly divided into groups to use in an experiment. Matters and conditions for experimental design were described in Table 2.
A breeding farm was managed according to the Korean poultry breeding management guidelines. Cages and the breeding farm were cleaned and disinfected before starting the test. The temperature of […] and the humidity of 40 to 50% of the breeding farm were maintained, and it was continuously monitored.
For the feed, Korea Feed Al-choi product was used, and each material (salinomycin (Cheil Bio Cheilsalino-60 product), xanthone (Sigma Aldrich X600 product), and the mangosteen extract prepared in Example 1-2 above) was added to the feed, respectively, at a concentration described in Table 3 below to be self-mixed. Antibiotics and supplements were not used in general feed and mixed feed, and no anticoccidial agent other than each material was added. Broilers were fed ad libitum throughout the experiment period. After putting 20 1-day-age broilers in cages randomly placed for each of the control group or test group and breeding, general feed was fed for 7 days, and then the mixed feed prepared above was ingested by dividing by control group or test group.
The feed formulation administered to the control group (negative control group or positive control group) and test group and whether coccidiosis was induced by Eimeria tenella were described in Table 3 below. 20 1-day-old broilers were put in a cage randomly arranged for each test group, and after 7 days of feeding the general feed, the formulated feed as described in Table 3 was divided into each test group and ingested.
14-day-old broilers were orally inoculated with 10,000 oocysts (90% sporulated Eimeria tenella oocysts) per individual to induce coccidiosis.
The anticoccidial efficacy by test group designed in Example 1-3 above was shown as an anticoccidial index (ACI), and the anticoccidial index was calculated by Equation 2 below. The ACI score is out of 200 points, and the higher the ACI score, the more excellent the anticoccidial ability, and when it is 120 points or more to less than 140 points, it is determined that it is effective as an anticoccidial material, and when it is 140 points or more to less than 160 points, it is determined that it is excellent as an anticoccidial material, and when it is 160 points or more, it is determined that the anticoccidial effect is very excellent. (Luis Miguel De Pablos et al., Anticoccidial activity of maslinic acid against infection with Eimeria tenella in chickens, Parasitol Res, 2010)
Anticoccidial index (ACI)=(survival rate after challenge inoculation (%))+(daily weight gain compared to negative control group (RWG, %))−(lesion score×10)−(fecal oocyst excretion amount index) (Equation 2)
1) Survival rate: the number of dead individuals was recorded daily, and post mortem autopsy was performed to determine a cause of mortality, and the number of individuals who died due to causes other than coccidiosis was excluded. The survival rate (%) up to the 8th day after challenge inoculation was used for anticoccidial index calculation.
2) Daily weight gain: body weight was measured for each cage before challenge inoculation with a protozoan into an individual and at the 7th day after challenge inoculation, and the difference was divided by the number of days to calculate the daily weight gain (ADG, g/d). ‘Daily weight gain compared to the negative control group (RWG, %)’which was calculated by dividing the daily weight gain (ADG, average daily gain; g/d) of each experimental group by the weight gain (ADG, g/d) of the non-infected negative control group and multiplying by 100 was used for anticoccidial index calculation. […]

Eimeria maxima = experiment: Protozoan (sporozoite) direct killing ability, Eimeria maxima; format: cell-based; conditions: for Eimeria maxima protozoal death rate (%): compared to PBS-treated negative control group
Experimental: as §4, §5, §6

Structure (SMILES): O=c1c2ccccc2oc2ccccc12 [Xanthone, xanthone]
- Minimum concentrataion of cytotoxicity at which cells of 50% or more survive (ppm) [1]: ≥62.5 ppm
- Eimeria tenella protozoal death rate (%) (Eimeria tenella [2]; 1 ppm): 0%
- Eimeria tenella protozoal death rate (%) (Eimeria tenella [2]; 5 ppm): 0%
- Eimeria tenella protozoal death rate (%) (Eimeria tenella [2]; 10 ppm): 0%
- Eimeria tenella protozoal death rate (%) (Eimeria tenella [2]; 50 ppm): 0%
- Eimeria tenella protozoal death rate (%) (Eimeria tenella [2]; 100 ppm): 0%
- Eimeria tenella protozoal death rate (%) (Eimeria tenella [2]; 125 ppm): 10%
- Eimeria tenella protozoal death rate (%) (Eimeria tenella [2]; 250 ppm): 0%
- Eimeria tenella protozoal death rate (%) (Eimeria tenella [2]; 500 ppm): 15%
- Minimum concentrataion of killing protozoa 100% (ppm) (Eimeria tenella [2]; Eimeria tenella, Table 15, method similar to Example 2-1): ≥500 ppm
- Minimum concentration for killing 100% protozoa (ppm), Eimeria tenella (Eimeria tenella [2]; tested 1 to 500 ppm): >500 ppm
- Minimum concentrataion of cytotoxicity at which cells of 50% or more survive (ppm) [3]: ≥62.5 ppm
- Intermediate body weight (14-day-old, before challenge inoculation) (Eimeria tenella [4]; formulated feed 62.5 ppm from day 7, female Ross broilers): 470.9
- Appendix lesion score (Eimeria tenella [4]; formulated feed 62.5 ppm, 8th day after challenge inoculation, scale of 0-4): 2.4
- End body weight (21-day-old, on the 7th day of challenge inoculation) (Eimeria tenella [4]; formulated feed 62.5 ppm, 10,000 E. tenella oocysts oral at 14 days): 887.0
- Day 14~Day 21 ADG (daily weight gain) (Eimeria tenella [4]; formulated feed 62.5 ppm, E. tenella infected broilers): 56.42 g/day
- Anticoccidial index (ACI) (Eimeria tenella [4]; formulated feed 62.5 ppm, Equation 2, out of 200 points): 122
- Oocyst excretion amount/gram (Eimeria tenella [4]; formulated feed 62.5 ppm, feces of 6~8th day of challenge inoculation, McMaster chamber): 1.80E+08 /gram
- RWG (daily weight gain compared to the negative control group) (Eimeria tenella [4]; formulated feed 62.5 ppm, relative to non-infected negative control group): 85%
- Eimeria maxima protozoal death rate (%) (Eimeria maxima; 1 ppm): 0%
- Eimeria maxima protozoal death rate (%) (Eimeria maxima; 5 ppm): 0%
- Eimeria maxima protozoal death rate (%) (Eimeria maxima; 10 ppm): 0%
- Eimeria maxima protozoal death rate (%) (Eimeria maxima; 50 ppm): 0%
- Eimeria maxima protozoal death rate (%) (Eimeria maxima; 100 ppm): 0%
- Eimeria maxima protozoal death rate (%) (Eimeria maxima; 125 ppm): 0%
- Eimeria maxima protozoal death rate (%) (Eimeria maxima; 250 ppm): 5%
- Eimeria maxima protozoal death rate (%) (Eimeria maxima; 500 ppm): 12%
- Minimum concentration for killing 100% protozoa (ppm), Eimeria maxima (Eimeria maxima; tested 1 to 500 ppm): >500 ppm

Reference: patent publication US20230321171A1, “ANTI-COCCIDIAL COMPOSITION COMPRISING MANGOSTEEN AND USES THEREOF” (CJ CHEILJEDANG CORPORATION, priority 2020, published 2023)
